Patent US7323597B2, “Method for the production of diaminoxylene by continuous hydrogenation of liquid phthalonitrile” (BASF Aktiengesellschaft, priority 2003, dated 2008)

Test: Solubility of IPN in MXDA
Format: physicochemical
Details: in MXDA (meta-xylylenediamine) as solvent, at 70° C.

## N#Cc1cccc(C#N)c1 [IPN, 1,3-dicyanobenzene]
  solubility of IPN in MXDA: approx. 20 % by weight
